Measurements reported in the CheMixHub viscosity set.
± gives the uncertainty stated by the source.

Experiment: xn = mol fraction of the nth substance listed

`CC#N` + CC(C)O gave a viscosity (293.15 K, 101.32 kPa, x1 = 0.0526) of 1.921 ± 0.015 mPa·s, a viscosity (293.15 K, 101.32 kPa, x1 = 0.0771) of 1.736 ± 0.014 mPa·s and a viscosity (293.15 K, 101.32 kPa, x1 = 0.1018) of 1.572 ± 0.013 mPa·s. It also gave a viscosity (293.15 K, 101.32 kPa, x1 = 0.2227) of 1.15 ± 0.009 mPa·s, a viscosity (293.15 K, 101.32 kPa, x1 = 0.3314) of 0.8622 ± 0.0073 mPa·s and a viscosity (293.15 K, 101.32 kPa, x1 = 0.3989) of 0.7354 ± 0.0063 mPa·s. For the same compound, the viscosity (293.15 K, 101.32 kPa, x1 = 0.55) was 0.5657 ± 0.0051 mPa·s, the viscosity (293.15 K, 101.32 kPa, x1 = 0.625) was 0.502 ± 0.0046 mPa·s and the viscosity (293.15 K, 101.32 kPa, x1 = 0.6893) was 0.4639 ± 0.0043 mPa·s. The viscosity (293.15 K, 101.32 kPa, x1 = 0.7624) was 0.4194 ± 0.004 mPa·s, the viscosity (293.15 K, 101.32 kPa, x1 = 0.864) was 0.3823 ± 0.0037 mPa·s and the viscosity (298.15 K, 101 kPa, x1 = 0.1056) was 1.372 ± 0.019 mPa·s. It also gave a viscosity (298.15 K, 101 kPa, x1 = 0.1688) of 1.145 ± 0.015 mPa·s, a viscosity (298.15 K, 101 kPa, x1 = 0.2531) of 0.923 ± 0.012 mPa·s and a viscosity (298.15 K, 101 kPa, x1 = 0.4135) of 0.653 ± 0.008 mPa·s. The viscosity (298.15 K, 101 kPa, x1 = 0.5014) was 0.556 ± 0.007 mPa·s, the viscosity (298.15 K, 101 kPa, x1 = 0.6077) was 0.473 ± 0.006 mPa·s and the viscosity (298.15 K, 101 kPa, x1 = 0.7093) was 0.424 ± 0.005 mPa·s. For the same compound, the viscosity (298.15 K, 101 kPa, x1 = 0.8276) was 0.373 ± 0.004 mPa·s, the viscosity (298.15 K, 101 kPa, x1 = 0.9013) was 0.356 ± 0.004 mPa·s and the viscosity (298.15 K, 101.3 kPa, x1 = 0.1399) was 1.254 ± 0.03 mPa·s. The viscosity (298.15 K, 101.3 kPa, x1 = 0.2679) was 0.846 ± 0.021 mPa·s, the viscosity (298.15 K, 101.3 kPa, x1 = 0.3855) was 0.66 ± 0.017 mPa·s and the viscosity (298.15 K, 101.3 kPa, x1 = 0.4939) was 0.541 ± 0.015 mPa·s. The viscosity (298.15 K, 101.3 kPa, x1 = 0.5942) was 0.482 ± 0.014 mPa·s, the viscosity (298.15 K, 101.3 kPa, x1 = 0.6871) was 0.419 ± 0.012 mPa·s and the viscosity (298.15 K, 101.3 kPa, x1 = 0.7736) was 0.372 ± 0.011 mPa·s. The viscosity (298.15 K, 101.3 kPa, x1 = 0.8541) was 0.343 ± 0.011 mPa·s, the viscosity (298.15 K, 101.3 kPa, x1 = 0.9295) was 0.342 ± 0.011 mPa·s and the viscosity (303.15 K, 101 kPa, x1 = 0.1056) was 1.088 ± 0.014 mPa·s. For the same compound, the viscosity (303.15 K, 101 kPa, x1 = 0.1688) was 0.918 ± 0.012 mPa·s, the viscosity (303.15 K, 101 kPa, x1 = 0.2531) was 0.762 ± 0.009 mPa·s and the viscosity (303.15 K, 101 kPa, x1 = 0.4135) was 0.551 ± 0.007 mPa·s. The viscosity (303.15 K, 101 kPa, x1 = 0.5014) was 0.482 ± 0.006 mPa·s, the viscosity (303.15 K, 101 kPa, x1 = 0.6077) was 0.417 ± 0.005 mPa·s and the viscosity (303.15 K, 101 kPa, x1 = 0.7093) was 0.382 ± 0.004 mPa·s. It also gave a viscosity (303.15 K, 101 kPa, x1 = 0.8276) of 0.341 ± 0.004 mPa·s, a viscosity (303.15 K, 101 kPa, x1 = 0.9013) of 0.327 ± 0.004 mPa·s and a viscosity (303.15 K, 101.3 kPa, x1 = 0.1399) of 1.114 ± 0.027 mPa·s. For the same compound, the viscosity (303.15 K, 101.3 kPa, x1 = 0.2679) was 0.758 ± 0.02 mPa·s, the viscosity (303.15 K, 101.3 kPa, x1 = 0.3855) was 0.599 ± 0.016 mPa·s and the viscosity (303.15 K, 101.3 kPa, x1 = 0.4939) was 0.502 ± 0.014 mPa·s. For the same compound, the viscosity (303.15 K, 101.3 kPa, x1 = 0.5942) was 0.45 ± 0.013 mPa·s, the viscosity (303.15 K, 101.3 kPa, x1 = 0.6871) was 0.394 ± 0.012 mPa·s and the viscosity (303.15 K, 101.3 kPa, x1 = 0.7736) was 0.356 ± 0.011 mPa·s. For the same compound, the viscosity (303.15 K, 101.3 kPa, x1 = 0.8541) was 0.327 ± 0.01 mPa·s, the viscosity (303.15 K, 101.3 kPa, x1 = 0.9295) was 0.326 ± 0.01 mPa·s and the viscosity (303.15 K, 101.32 kPa, x1 = 0.0526) was 1.464 ± 0.012 mPa·s. The viscosity (303.15 K, 101.32 kPa, x1 = 0.0771) was 1.361 ± 0.011 mPa·s, the viscosity (303.15 K, 101.32 kPa, x1 = 0.1018) was 1.239 ± 0.01 mPa·s and the viscosity (303.15 K, 101.32 kPa, x1 = 0.2227) was 0.9168 ± 0.0077 mPa·s. For the same compound, the viscosity (303.15 K, 101.32 kPa, x1 = 0.3314) was 0.7097 ± 0.0062 mPa·s, the viscosity (303.15 K, 101.32 kPa, x1 = 0.3989) was 0.6154 ± 0.0054 mPa·s and the viscosity (303.15 K, 101.32 kPa, x1 = 0.55) was 0.4831 ± 0.0045 mPa·s. The viscosity (303.15 K, 101.32 kPa, x1 = 0.625) was 0.4366 ± 0.0041 mPa·s, the viscosity (303.15 K, 101.32 kPa, x1 = 0.6893) was 0.407 ± 0.0039 mPa·s and the viscosity (303.15 K, 101.32 kPa, x1 = 0.7624) was 0.378 ± 0.0037 mPa·s. The viscosity (303.15 K, 101.32 kPa, x1 = 0.864) was 0.344 ± 0.0034 mPa·s, the viscosity (308.15 K, 101 kPa, x1 = 0.1056) was 0.871 ± 0.011 mPa·s and the viscosity (308.15 K, 101 kPa, x1 = 0.1688) was 0.739 ± 0.01 mPa·s. For the same compound, the viscosity (308.15 K, 101 kPa, x1 = 0.2531) was 0.635 ± 0.008 mPa·s, the viscosity (308.15 K, 101 kPa, x1 = 0.4135) was 0.475 ± 0.006 mPa·s and the viscosity (308.15 K, 101 kPa, x1 = 0.5014) was 0.42 ± 0.005 mPa·s. The viscosity (308.15 K, 101 kPa, x1 = 0.6077) was 0.372 ± 0.004 mPa·s, the viscosity (308.15 K, 101 kPa, x1 = 0.7093) was 0.345 ± 0.004 mPa·s and the viscosity (308.15 K, 101 kPa, x1 = 0.8276) was 0.312 ± 0.004 mPa·s. It also gave a viscosity (308.15 K, 101 kPa, x1 = 0.9013) of 0.302 ± 0.004 mPa·s, a viscosity (308.15 K, 101.3 kPa, x1 = 0.1399) of 0.995 ± 0.025 mPa·s and a viscosity (308.15 K, 101.3 kPa, x1 = 0.2679) of 0.687 ± 0.018 mPa·s. It also gave a viscosity (308.15 K, 101.3 kPa, x1 = 0.3855) of 0.546 ± 0.015 mPa·s, a viscosity (308.15 K, 101.3 kPa, x1 = 0.4939) of 0.465 ± 0.013 mPa·s and a viscosity (308.15 K, 101.3 kPa, x1 = 0.5942) of 0.417 ± 0.012 mPa·s. The viscosity (308.15 K, 101.3 kPa, x1 = 0.6871) was 0.37 ± 0.011 mPa·s, the viscosity (308.15 K, 101.3 kPa, x1 = 0.7736) was 0.331 ± 0.01 mPa·s and the viscosity (308.15 K, 101.3 kPa, x1 = 0.8541) was 0.311 ± 0.01 mPa·s. The viscosity (308.15 K, 101.3 kPa, x1 = 0.9295) was 0.309 ± 0.01 mPa·s, the viscosity (313.15 K, 101.3 kPa, x1 = 0.1399) was 0.889 ± 0.022 mPa·s and the viscosity (313.15 K, 101.3 kPa, x1 = 0.2679) was 0.623 ± 0.017 mPa·s. It also gave a viscosity (313.15 K, 101.32 kPa, x1 = 0.0526) of 1.125 ± 0.009 mPa·s, a viscosity (313.15 K, 101.32 kPa, x1 = 0.0771) of 1.047 ± 0.009 mPa·s and a viscosity (313.15 K, 101.32 kPa, x1 = 0.1018) of 0.991 ± 0.0083 mPa·s. The viscosity (313.15 K, 101.32 kPa, x1 = 0.2227) was 0.7301 ± 0.0063 mPa·s, the viscosity (313.15 K, 101.32 kPa, x1 = 0.3314) was 0.5949 ± 0.0053 mPa·s and the viscosity (313.15 K, 101.32 kPa, x1 = 0.3989) was 0.5253 ± 0.0048 mPa·s. For the same compound, the viscosity (313.15 K, 101.32 kPa, x1 = 0.55) was 0.4201 ± 0.004 mPa·s, the viscosity (313.15 K, 101.32 kPa, x1 = 0.625) was 0.3817 ± 0.0037 mPa·s and the viscosity (313.15 K, 101.32 kPa, x1 = 0.6893) was 0.361 ± 0.0036 mPa·s. It also gave a viscosity (313.15 K, 101.32 kPa, x1 = 0.7624) of 0.3321 ± 0.0033 mPa·s, a viscosity (313.15 K, 101.32 kPa, x1 = 0.864) of 0.3081 ± 0.0032 mPa·s and a viscosity (323.15 K, 101 kPa, x2 = 0.0989) of 0.289 ± 0.01 mPa·s. The viscosity (323.15 K, 101 kPa, x2 = 0.1994) was 0.312 ± 0.01 mPa·s, the viscosity (323.15 K, 101 kPa, x2 = 0.2943) was 0.34 ± 0.01 mPa·s and the viscosity (323.15 K, 101 kPa, x2 = 0.3965) was 0.378 ± 0.01 mPa·s. For the same compound, the viscosity (323.15 K, 101 kPa, x2 = 0.4864) was 0.427 ± 0.01 mPa·s, the viscosity (323.15 K, 101 kPa, x2 = 0.6077) was 0.499 ± 0.01 mPa·s and the viscosity (323.15 K, 101 kPa, x2 = 0.7049) was 0.58 ± 0.01 mPa·s. For the same compound, the viscosity (323.15 K, 101 kPa, x2 = 0.8007) was 0.685 ± 0.01 mPa·s, the viscosity (323.15 K, 101 kPa, x2 = 0.8971) was 0.815 ± 0.011 mPa·s and the viscosity (323.15 K, 101.32 kPa, x1 = 0.0526) was 0.9024 ± 0.0077 mPa·s. It also gave a viscosity (323.15 K, 101.32 kPa, x1 = 0.0771) of 0.8427 ± 0.0072 mPa·s, a viscosity (323.15 K, 101.32 kPa, x1 = 0.1018) of 0.7839 ± 0.0068 mPa·s and a viscosity (323.15 K, 101.32 kPa, x1 = 0.2227) of 0.6091 ± 0.0054 mPa·s. The viscosity (323.15 K, 101.32 kPa, x1 = 0.3314) was 0.5031 ± 0.0046 mPa·s, the viscosity (323.15 K, 101.32 kPa, x1 = 0.3989) was 0.4466 ± 0.0042 mPa·s and the viscosity (323.15 K, 101.32 kPa, x1 = 0.55) was 0.3731 ± 0.0037 mPa·s. The viscosity (323.15 K, 101.32 kPa, x1 = 0.625) was 0.3434 ± 0.0034 mPa·s, the viscosity (323.15 K, 101.32 kPa, x1 = 0.6893) was 0.329 ± 0.0033 mPa·s and the viscosity (323.15 K, 101.32 kPa, x1 = 0.7624) was 0.3054 ± 0.0032 mPa·s. It also gave a viscosity (323.15 K, 101.32 kPa, x1 = 0.864) of 0.2835 ± 0.003 mPa·s.
